Publication PMC6072853 (Frontiers in Pharmacology, 2018)

How the values were obtained:
Assay type in all cases: cell-based, human
[1] = tested on: A2780; assay: MTT antiproliferative assay, A2780; settings: Homo sapiens, 72 h, read-out: Growth inhibition (%) ± SEM; for inhibition at 10 µM: A2780, 10 μM; for inhibition at 30 µM: A2780, 30 μM
Text: (§1) Gynecological cancer cell lines, including ovarian (A2780), cervical (HeLa), and breast cancer cell lines (MCF7, T47D, MDA-MB-231, and MDA-MB-361) were purchased from the European Collection of Authenticated Cell Cultures (ECACC, Salisbury, United Kingdom). Additional cervical cell lines (SiHa and C33A) and a non-cancerous immortalized, mammary gland epithelial cell line (hTERT-HME1) were purchased from LGC Standards GmbH (Wesel, Germany). Non-cancerous fibroblast cells (MRC-5) were also obtained from the ECACC. All cells were cultured in minimal essential medium supplemented with 10% fetal bovine serum, 1% non-essential amino acids, and 1% antibiotic-antimycotic mixture, in humidified air containing 5% CO2 at 37°C. Immortalized hTERT-HME1 cells were maintained in serum-free mammary epithelial cell growth medium (MEGM) supplemented with insulin, human epidermal growth factor (hEGF), hydrocortisone, bovine pituitary extract, and an antibiotic-antimycotic mixture. All the medium and supplements were purchased from Lonza Group Ltd. (Basel, Switzerland).
(§2) The antiproliferative properties of the compounds were assessed by an MTT assay ([Mosmann, 1983]). Cells were seeded onto 96-well microplates at a density of 10,000 cells/well (MDA-MB-361 and C33A) or 5,000 cells/well (all other cell lines). After an overnight incubation, fresh medium containing the test compounds (at a concentration of 10 or 30 μM) was added. After incubation for 72 h at 37°C in humidified air, [3-(4,5-dimethylthiazol-2-yl)-2,5-diphenyltetrazolium bromide] (MTT) solution (5 mg/mL) was added. Purple formazan crystals were formed by the living cells during a 4 h contact period, which were assayed by spectrophotometry after having been dissolved in 100 μL DMSO. Untreated cells served as control, and cisplatin (CIS) (Ebewe Pharma GmbH, Unterach, Austria) was used as a reference compound. […] Two independent measurements were performed with five parallel wells. To present preliminary data concerning tumor selectivity of the potent compounds, the procedure was repeated on MRC-5 fibroblast and hTERT-HME1 immortalized mammary gland epithelial cells under the same experimental conditions.

[2] = tested on: MDA-MB-361; assay: MTT antiproliferative assay, MDA-MB-361; settings: Homo sapiens, 72 h, read-out: Growth inhibition (%) ± SEM; for inhibition at 10 µM: MDA-MB-361, 10 μM; for inhibition at 30 µM: MDA-MB-361, 30 μM
Text: as §1, §2

[3] = tested on: SiHa; assay: MTT antiproliferative assay, SiHa; settings: Homo sapiens, 72 h, read-out: Growth inhibition (%) ± SEM
Text: as §1, §2

[4] = tested on: MCF-7; assay: MTT antiproliferative assay, MCF-7; settings: Homo sapiens, MCF7, 72 h, read-out: Growth inhibition (%) ± SEM; for inhibition at 10 µM: MCF-7, 10 μM; for inhibition at 30 µM: MCF-7, 30 μM
Text: as §1, §2

[5] = tested on: HeLa; assay: MTT antiproliferative assay, HeLa; settings: Homo sapiens, 72 h; for inhibition at 10 µM / inhibition at 30 µM: read-out: Growth inhibition (%) ± SEM
Text: as §1, §2

[6] = tested on: T47D; assay: MTT antiproliferative assay, T47D; settings: Homo sapiens, 72 h, read-out: Growth inhibition (%) ± SEM
Text: as §1, §2

[7] = tested on: MDA-MB-231; assay: MTT antiproliferative assay, MDA-MB-231; settings: Homo sapiens, 72 h, read-out: Growth inhibition (%) ± SEM; for inhibition at 10 µM: MDA-MB-231, 10 μM; for inhibition at 30 µM: MDA-MB-231, 30 μM
Text: as §1, §2

[8] = tested on: C33A; assay: MTT antiproliferative assay, C33A; settings: Homo sapiens, C-33-A, 72 h, read-out: Growth inhibition (%) ± SEM
Text: as §1, §2

[9] = tested on: MRC-5; assay: MTT assay, non-cancerous fibroblasts MRC-5; settings: Homo sapiens, MRC5, 72 h, read-out: Growth inhibition (%) ± SEM
Text: as §1, §2

Compound | inhibition at 10 µM [1] [%] | inhibition at 30 µM [1] [%] | inhibition at 10 µM [2] [%] | inhibition at 30 µM [2] [%] | inhibition at 10 µM [3] [%] | inhibition at 30 µM [3] [%] | inhibition at 10 µM [4] [%] | inhibition at 30 µM [4] [%] | inhibition at 10 µM [5] [%] | inhibition at 30 µM [5] [%] | inhibition at 10 µM [6] [%] | inhibition at 30 µM [6] [%] | inhibition at 10 µM [7] [%] | inhibition at 30 µM [7] [%] | inhibition at 10 µM [8] [%] | inhibition at 30 µM [8] [%] | inhibition at 10 µM ([9]; MRC-5, 10 μM) [%] | inhibition at 30 µM ([9]; MRC-5, 30 μM) [%] | IC50 ([5]; read-out: calculated IC50 value) [nM]
C[C@]12CC[C@H]3[C@@H](CCC4=CC(=O)CC[C@@H]43)[C@@H]1CC[C@H]2OC(=O)c1ccc([N+](=O)[O-])cc1[N+](=O)[O-] [Compound 6, 17α-19-nortestosterone-17-yl 2′,4′-dinitrobenzoate] | < 20 | 31.9 ± 2.6 | < 20 | < 20 | < 20 | < 20 | < 20 | 35.9 ± 1.4 | 32 ± 2.9 | 26.5 ± 2.3 | < 20 | 47.2 ± 2.6 | < 20 | < 20 | < 20 | < 20 | – | – | –
C[C@]12CC[C@H]3[C@@H](CCC4=CC(=O)CC[C@@H]43)[C@@H]1CC[C@H]2I [Compound 5] | 27.7 ± 1.3 | 61.6 ± 1.8 | < 20 | < 20 | < 20 | < 20 | < 20 | < 20 | 95.2 ± 0.4 | 95.8 ± 0.2 | < 20 | < 20 | < 20 | < 20 | < 20 | < 20 | 13.1 ± 1.9 | 13.8 ± 2 | 1490
C[C@]12CC[C@H]3[C@@H](CCC4=CC(=O)CC[C@@H]43)[C@@H]1CC[C@H]2O [Compound 2, 17α-19-nortestosterone] | < 20 | < 20 | < 20 | < 20 | < 20 | < 20 | < 20 | 27.7 ± 3.7 | 28.1 ± 4 | 37.9 ± 3.4 | < 20 | < 20 | < 20 | < 20 | < 20 | < 20 | – | – | –
